From article PMC11062906 (Nature, 2024)
“Also recorded” adds a separate entry of the source.

Legend:
BmGr9 [1] = molecular target: T1, BmGr9 (Bombyx mori, UniProt B3GTD7); assay: Intrinsic tryptophan fluorescence of detergent-solubilized purified BmGr9; format: binding; details: purified BmGr9 in digitonin, n = 4, 95% CI in parentheses
[2] = test system: BmGr9 Q443, F444, and Q445 mutants; assay: GCaMP assay, L-sorbose on BmGr9 Q443, F444 and Q445 mutants; format: cell-based, Bombyx mori; details: author rebuttal
BmGr9 [3] = molecular target: T1, BmGr9; details: electrophysiology; ref Sato et al. PNAS, 2011; cited from earlier work
BmGr9 [4] = molecular target: T1, BmGr9; assay: Cell-based GCaMP calcium flux assay, wild-type BmGr9

T1 sequence (B3GTD7 entry or part of it): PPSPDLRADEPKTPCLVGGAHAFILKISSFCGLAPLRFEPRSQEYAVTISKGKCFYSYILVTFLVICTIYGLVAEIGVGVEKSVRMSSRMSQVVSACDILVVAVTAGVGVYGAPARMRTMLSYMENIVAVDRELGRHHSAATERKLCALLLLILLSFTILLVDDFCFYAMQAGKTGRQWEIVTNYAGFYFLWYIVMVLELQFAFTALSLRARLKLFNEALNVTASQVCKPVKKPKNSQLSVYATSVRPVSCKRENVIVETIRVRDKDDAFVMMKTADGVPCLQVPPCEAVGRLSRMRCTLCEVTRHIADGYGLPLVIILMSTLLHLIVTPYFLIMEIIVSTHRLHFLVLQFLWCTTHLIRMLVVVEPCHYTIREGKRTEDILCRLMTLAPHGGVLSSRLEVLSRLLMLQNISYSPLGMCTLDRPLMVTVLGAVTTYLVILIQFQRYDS

For `O=C(CO)[C@@H](O)[C@H](O)[C@@H](O)CO` [L-sorbose], the Kd (BmGr9 [1]; KD (apparent affinity, tryptophan fluorescence)) was 63 mM, the “KD (apparent affinity, tryptophan fluorescence)” value (BmGr9 [1]) was “affinity close to that of D-fructose” and the “activation of BmGr9 mutants by L-sorbose” value [2] was “does not appear that L-sorbose can activate any of these BmGr9 mutants”. The “activation of BmGr9 in oocytes” value (BmGr9 [3]) was “not to activate”, the “Activation of BmGr9 (change in fluorescence) by sweet compound” value (BmGr9 [4]; 100 mM sweet compound, HEK293 cells with BmGr9 plus GCaMP vs GCaMP only) was “not statistically different than GCaMP alone; also recorded: did not activate BmGr9 significantly” and the “maximum activity in dose-response” value (BmGr9 [4]; titration, n = 5, vs GCaMP-only control wells) was “less than control wells with GCaMP only”.
